Assay results reported in ChEMBL document CHEMBL1201862, “PubChem BioAssay data set” (2004).
Calls of active or inactive are those of the source.

How the values were obtained:
Cytochrome P450 3A4 = Cytochrome P450 3A4 (Homo sapiens, UniProt P08684);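 further: CYP3A4 tested as one member of a cytochrome P450 panel screen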
Cytochrome P450 2C19 = Cytochrome P450 2C19 (Homo sapiens, UniProt P33261); test: Cytochrome panel assay with activity outcomes. Panel member name: p450-cyp2c19 Compounds with AC50 equal or less than 10 uM are considered active; assay type: functional
Cytochrome P450 2C19, sequence (P33261 whole entry): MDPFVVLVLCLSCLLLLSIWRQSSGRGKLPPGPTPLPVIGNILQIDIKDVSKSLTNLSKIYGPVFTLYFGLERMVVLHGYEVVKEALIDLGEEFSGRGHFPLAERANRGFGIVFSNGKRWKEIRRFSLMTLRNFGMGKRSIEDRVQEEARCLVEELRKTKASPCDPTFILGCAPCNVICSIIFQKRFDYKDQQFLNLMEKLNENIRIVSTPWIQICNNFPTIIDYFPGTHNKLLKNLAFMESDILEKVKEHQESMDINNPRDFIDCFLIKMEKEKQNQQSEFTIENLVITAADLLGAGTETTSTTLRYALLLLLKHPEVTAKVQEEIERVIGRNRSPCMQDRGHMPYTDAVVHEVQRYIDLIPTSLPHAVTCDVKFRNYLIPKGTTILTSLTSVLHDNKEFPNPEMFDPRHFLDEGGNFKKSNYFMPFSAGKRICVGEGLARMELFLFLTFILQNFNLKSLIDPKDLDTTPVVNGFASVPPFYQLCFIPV

Cytochrome P450 1A2 = target: T1, Cytochrome P450 1A2 (Homo sapiens, UniProt P05177);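 further: PubChem cytochrome P450 panel assay, CYP1A2 panel member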
T1 sequence (P05177 whole entry): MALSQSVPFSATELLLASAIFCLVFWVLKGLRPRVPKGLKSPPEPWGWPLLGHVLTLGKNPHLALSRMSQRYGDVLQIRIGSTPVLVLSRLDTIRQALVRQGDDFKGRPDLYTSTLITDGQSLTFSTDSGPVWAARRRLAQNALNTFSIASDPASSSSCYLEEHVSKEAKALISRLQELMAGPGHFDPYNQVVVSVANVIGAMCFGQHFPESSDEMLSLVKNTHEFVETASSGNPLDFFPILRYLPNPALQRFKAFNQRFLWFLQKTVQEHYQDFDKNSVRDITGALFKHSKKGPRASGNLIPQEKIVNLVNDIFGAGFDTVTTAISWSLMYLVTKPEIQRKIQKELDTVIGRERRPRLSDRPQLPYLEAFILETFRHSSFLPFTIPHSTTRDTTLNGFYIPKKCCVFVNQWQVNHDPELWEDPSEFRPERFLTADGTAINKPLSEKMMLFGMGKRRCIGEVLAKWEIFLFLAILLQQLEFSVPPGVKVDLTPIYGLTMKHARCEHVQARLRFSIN

Cytochrome P450 2C9 = Cytochrome P450 2C9 (Homo sapiens, UniProt P11712)
Cytochrome P450 2C9, sequence (P11712 whole entry): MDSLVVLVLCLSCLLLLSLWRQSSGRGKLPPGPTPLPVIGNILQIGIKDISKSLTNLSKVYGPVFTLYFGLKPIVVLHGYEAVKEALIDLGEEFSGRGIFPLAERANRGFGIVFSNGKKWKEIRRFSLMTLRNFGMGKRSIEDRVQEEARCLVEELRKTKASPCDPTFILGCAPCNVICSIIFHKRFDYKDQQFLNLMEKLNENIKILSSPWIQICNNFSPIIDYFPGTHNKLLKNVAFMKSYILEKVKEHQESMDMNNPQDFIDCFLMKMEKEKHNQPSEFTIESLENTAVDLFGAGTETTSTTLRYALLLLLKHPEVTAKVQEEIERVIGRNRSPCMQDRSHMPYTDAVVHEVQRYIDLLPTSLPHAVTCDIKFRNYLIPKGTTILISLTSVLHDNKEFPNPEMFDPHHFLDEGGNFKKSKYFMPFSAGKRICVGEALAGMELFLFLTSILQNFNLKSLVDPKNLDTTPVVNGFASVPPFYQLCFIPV

Cytochrome P450 2D6 = Cytochrome P450 2D6 (Homo sapiens, UniProt P10635);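 further: CYP2D6 member of a cytochrome P450 panel assay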
Cytochrome P450 2D6, sequence (P10635 whole entry): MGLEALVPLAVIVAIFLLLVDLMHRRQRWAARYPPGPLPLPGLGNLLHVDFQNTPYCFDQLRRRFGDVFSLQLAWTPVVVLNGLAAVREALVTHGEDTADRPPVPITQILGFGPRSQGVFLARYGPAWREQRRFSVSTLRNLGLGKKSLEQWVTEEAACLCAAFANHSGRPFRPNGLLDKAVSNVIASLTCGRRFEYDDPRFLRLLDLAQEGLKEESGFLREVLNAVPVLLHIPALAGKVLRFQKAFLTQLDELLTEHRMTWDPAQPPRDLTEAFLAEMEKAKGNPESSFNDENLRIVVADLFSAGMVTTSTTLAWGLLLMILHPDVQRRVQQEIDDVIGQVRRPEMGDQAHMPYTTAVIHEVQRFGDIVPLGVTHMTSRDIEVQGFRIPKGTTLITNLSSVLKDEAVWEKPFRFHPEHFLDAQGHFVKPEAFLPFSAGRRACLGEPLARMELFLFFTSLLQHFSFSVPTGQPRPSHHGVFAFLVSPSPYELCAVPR

[1] = Luminescence Cell-Based Dose Response HTS to Identify Activators of Luciferase Translation or Activity in H4 […] Cells. [Related pubchem assays: 1829 (Project Summary), 1814 (Primary HTS)]; assay type: functional
[2] = target: T2, Corticotropin-releasing factor receptor 2/Corticotropin-releasing factor-binding protein (Homo sapiens, UniProt P24387+Q13324); test: Dose Response confirmation of uHTS hits for small molecule antagonists of the CRF-binding protein and CRF-R2 receptor complex.; assay type: functional; conditions: read-out: IC50_Mean
T2 sequence (Q13324 whole entry): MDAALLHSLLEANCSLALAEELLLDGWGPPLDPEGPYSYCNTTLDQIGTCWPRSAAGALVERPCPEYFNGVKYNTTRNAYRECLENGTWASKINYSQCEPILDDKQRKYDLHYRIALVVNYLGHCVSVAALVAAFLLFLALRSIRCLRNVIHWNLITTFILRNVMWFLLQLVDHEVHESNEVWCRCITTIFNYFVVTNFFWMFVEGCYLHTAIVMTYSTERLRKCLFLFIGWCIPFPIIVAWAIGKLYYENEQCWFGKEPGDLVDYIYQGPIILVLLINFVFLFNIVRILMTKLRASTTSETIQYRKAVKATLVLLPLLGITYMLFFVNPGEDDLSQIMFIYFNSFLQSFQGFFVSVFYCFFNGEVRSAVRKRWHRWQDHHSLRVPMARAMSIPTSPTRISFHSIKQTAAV
T2 sequence (P24387 whole entry): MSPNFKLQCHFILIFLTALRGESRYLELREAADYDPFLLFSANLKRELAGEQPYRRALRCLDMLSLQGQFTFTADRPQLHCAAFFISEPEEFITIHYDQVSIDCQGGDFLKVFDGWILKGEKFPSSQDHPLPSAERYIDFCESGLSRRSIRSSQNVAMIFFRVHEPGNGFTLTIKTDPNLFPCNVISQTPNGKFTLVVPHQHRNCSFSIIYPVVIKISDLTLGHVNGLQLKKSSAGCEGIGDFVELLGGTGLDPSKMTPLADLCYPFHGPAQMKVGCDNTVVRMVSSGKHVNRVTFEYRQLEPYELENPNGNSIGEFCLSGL

[3] = target: T2, Corticotropin-releasing factor receptor 2/Corticotropin-releasing factor-binding protein; test: activators of CRF receptor 2 with binding protein – uHTS hits, confirmation (AID 602473); assay type: functional; conditions: read-out: EC50_Mean
H9c2 = test: cells; assay type: functional, cell-based; conditions: Rattus norvegicus, H9c2, Myocardium;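 further: confirmatory concentration-response retest of ultra-high-throughput screening hits for modulation of myocardial damage; cell death induced by hydrogen peroxide oxidative stress; compound pretreatment for 60 min then peroxide exposure for 2 h; potency is for protecting the cells against peroxide damage rather than for killing them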
[4] = microbe, parasite or virus in culture; assay type: functional; conditions: Mycobacterium tuberculosis
Streptococcus = test: GAS UMAA2166 growth inhibition – luminescence, BacTiterGlo, counter-screen for streptokinase expression inhibitor project, dose response (AID 1915); assay type: functional, organism-based;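 further: potency for reduction of bacterial viability or growth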
[5] = system: Streptococcus sp. 'group A'; test: Streptococcus pyogenes SK(-)GAS viability under kanamycin – luminescence, BacTiterGlo, confirmation, counter-screen for streptokinase expression inhibitor project, dose response (AID 1900); assay type: functional, organism-based

Cytochrome P450 3A4, sequence (P08684 whole entry): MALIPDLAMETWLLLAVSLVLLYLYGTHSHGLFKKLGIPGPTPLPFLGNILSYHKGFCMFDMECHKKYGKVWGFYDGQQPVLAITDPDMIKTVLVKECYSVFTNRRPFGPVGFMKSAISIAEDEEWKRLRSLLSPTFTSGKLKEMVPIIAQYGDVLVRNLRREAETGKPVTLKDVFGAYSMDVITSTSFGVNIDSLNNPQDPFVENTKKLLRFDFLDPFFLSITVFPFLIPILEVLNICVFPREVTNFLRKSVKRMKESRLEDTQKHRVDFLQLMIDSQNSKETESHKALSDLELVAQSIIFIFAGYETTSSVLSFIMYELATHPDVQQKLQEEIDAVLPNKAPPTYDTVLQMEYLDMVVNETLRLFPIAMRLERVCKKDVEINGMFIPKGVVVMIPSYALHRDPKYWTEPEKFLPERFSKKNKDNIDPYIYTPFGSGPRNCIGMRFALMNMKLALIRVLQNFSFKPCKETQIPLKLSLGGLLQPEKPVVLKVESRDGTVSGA

With `C=CCNC(S)=NNc1ncnc2sc3c(c12)CC(C)(C)OC3` the AC50 (Cytochrome P450 3A4) was 17.8 µM (inconclusive), the AC50 (Cytochrome P450 2C19; read-out: AC50) was 8.91 µM (inconclusive) and the AC50 (Cytochrome P450 1A2) was 12.6 µM (inconclusive). For the same compound, the AC50 (Cytochrome P450 2C9) was 8.91 µM (inconclusive).
In the case of `NC(=O)/C(=C\c1ccncc1)c1cccc2ccccc12`, the AC50 (Cytochrome P450 2D6) is reported as 2 µM (inconclusive).
With `CCOC(=O)c1sc(NC(=O)C(C)(C)C)cc1C` the EC50 [1] was 13 µM (active).
For `O=C1CCc2cc(S(=O)(=O)N3CCC(C(=O)NC4CCCCCCC4)CC3)ccc2N1`, the IC50 [2] was > 47.1 µM (inactive) and the EC50 [3] was 34 µM (active).
For `Cc1ccc(S(=O)(=O)N2CCN(C(=O)CCc3nc(O)c4ccccc4n3)CC2)c(C)c1`, the IC50 (H9c2) was > 79 µM (inactive).
For `COc1cccc(Cn2c(=O)c(-c3cccs3)nc3cnc(N(C)C)nc32)c1`, the AC50 (Cytochrome P450 3A4) was 15.8 µM (inconclusive), the AC50 (Cytochrome P450 2C19; read-out: AC50) was 0.00631 µM (inconclusive) and the AC50 (Cytochrome P450 1A2) was 15.8 µM (inconclusive).
In the case of `CCOC(=O)Cc1csc(NC(=O)c2c(O)c3c(n(CC(C)C)c2=O)CCCC3)n1`, the CC50 [4] is reported as > 40 µM (active).
For `COc1ccc(NC(=O)c2cc(S(=O)(=O)N3CCS(=O)(=O)CC3)ccc2Cl)cc1`, the AC50 (Cytochrome P450 3A4) was 14.1 µM (inconclusive).
For `COc1cccc(Nc2nc3ccccc3n3nnnc23)c1`, the IC50 (H9c2) was > 79 µM (inactive).
For `CCC(C)NS(=O)(=O)c1ccc(OCC(=O)Nc2ccc3c(c2)OCCO3)cc1` (stereo unspecified), the AC50 (Cytochrome P450 3A4) was 15.8 µM (inconclusive) and the AC50 (Cytochrome P450 2C19; read-out: AC50) was 7.08 µM (inconclusive).
In the case of `CC#CCCCC(=O)Nc1ccccc1C(=O)O`, the IC50 [2] is reported as > 47.1 µM (inactive) and the EC50 [3] is reported as > 53 µM (inactive).
For `CCOc1ccc(NC(=O)Nc2cc(C)ccc2OC)cc1`, the IC50 [2] was > 47.1 µM (inactive) and the EC50 [3] was > 53 µM (inactive).
For `Fc1ccc(Nc2ccnc(-c3ccoc3)n2)cc1`, the AC50 (Cytochrome P450 2D6) was 20 µM (inconclusive).
In the case of `O=C(c1ccccc1)c1c[nH]c(C(=O)NCc2cccnc2)c1`, the AC50 (Cytochrome P450 2D6) is reported as 15.8 µM (inconclusive).
In the case of `O=C(C[C@H]1C/C=C\CC[C@H](Cc2ccc(F)cc2)C(=O)O[C@@H](c2ccccc2)CNC1=O)N[C@H](CO)Cc1ccccc1`, the IC50 (H9c2) is reported as > 79 µM (inactive).
With `CCn1nc(C(=O)NNC(=O)c2cc(Cl)ccc2OC)c2ccccc2c1=O` the IC50 (H9c2) was > 79 µM (inactive).
With `CCN(CC(=O)Nc1c(F)cccc1F)C(=O)c1ccc2c(=O)n3c(nc2c1)CCC3` the IC50 [2] was > 47.1 µM (inactive) and the EC50 [3] was > 53 µM (inactive).
With `Cc1nnc(-c2cnn(-c3ccccc3)c2N)n1Cc1ccccc1` the AC50 (Cytochrome P450 3A4) was 25.1 µM (inconclusive) and the AC50 (Cytochrome P450 2C9) was 39.8 µM (inconclusive).
For `CCN1CCN(C(=O)C2c3cc(OC)c(OC)cc3C(=O)N3CCc4ccccc4C23)CC1` (stereo unspecified), the AC50 (Cytochrome P450 3A4) was 28.2 µM (inconclusive) and the AC50 (Cytochrome P450 2C19) was “inconclusive”.
With `Cc1ccc(NC(=O)CSC(C)C(=O)OCc2cc(=O)oc3cc(O)ccc23)cc1` (stereo unspecified) the IC50 (H9c2) was > 79 µM (inactive).
For `Cc1ccc(NC(=O)COC(=O)CCC(=O)c2cccs2)c(Br)c1`, the IC50 [2] was > 47.1 µM (inactive) and the EC50 [3] was > 53 µM (inactive).
In the case of `Cc1cc(OCc2nc(N)nc(N)c2-c2ccc(Cl)c(Cl)c2)ccc1[N+](=O)[O-]`, the AC50 (Cytochrome P450 3A4) is reported as 3.98 µM (inconclusive) and the AC50 (Cytochrome P450 1A2) is reported as 5.01 µM (inconclusive).
For `Cc1ccc2nc(N/N=C/c3ccccc3C#N)nc(-c3ccccc3)c2c1`, the CC50 [4] was 28.8 µM (active).
With `C/C(CC(=O)Nc1ccc(Cl)c(C(F)(F)F)c1)=N\NC(=O)c1ccccc1O` the EC50 (Streptococcus) was 3.68 µM (active) and the EC50 [5] was 2.77 µM (active).
In the case of `C=CC/N=C1\CC(C)(C)CC(O)=C1C(=O)c1ccccc1`, the AC50 (Cytochrome P450 3A4) is reported as 25.1 µM (inconclusive).
In the case of `C/C(=N\Nc1ccc(S(=O)(=O)N2CCCCC2)cn1)c1cccc(Br)c1`, the CC50 [4] is reported as > 40 µM (active).
